{"source": "PubChem BioAssay AID344", "about": "(DTP/NCI, 2004)", "test_system": "mice, LPC-1 plasma cell tumor ip, median survival T/C", "assay": "NCI In Vivo Anticancer Drug Screen. Data for tumor model Lieberman Plasma Cell No. 1 (LPC-1) (intraperitoneal) in unknown mice", "details": "endpoint: median survival time, higher = longer survival", "experimental": "The antitumor activity of compounds was measured in mice bearing transplantable tumors. Survival or tumor size were measured and the results are expressed as the measurement made in the treated group (T) divided by the measurement made in the vehicle treated control group (C). The tumor model used in this assay is Lieberman Plasma Cell No. 1 (LPC-1) (intraperitoneal) in unknown mice", "note": "Toxic doses and inconclusive results are not listed.", "data": [{"smiles": "CC(=O)O[C@]1(C(C)=O)CC[C@H]2[C@@H]3C[C@H](C)C4=CC(=O)C=C[C@]4(C)[C@@]3(F)[C@@H](O)C[C@@]21C", "values": [{"measurement": "T/C", "setting": "dose: 25.0 mg/kg/injection, schedule: Q01DX028 (sc), vehicle: steriod suspending solution", "value": "100 % of control"}, {"measurement": "T/C", "setting": "dose: 50.0 mg/kg/injection, schedule: Q01DX028 (sc), vehicle: steriod suspending solution", "value": "97 % of control"}, {"measurement": "T/C", "setting": "dose: 75.0 mg/kg/injection, schedule: Q01DX028 (sc), vehicle: steriod suspending solution", "value": "91 % of control"}, {"measurement": "T/C", "setting": "dose: 100.0 mg/kg/injection, schedule: Q01DX028 (sc), vehicle: steriod suspending solution", "value": "97 % of control"}]}, {"smiles": "CC(=O)[C@H]1CC[C@H]2[C@@H]3C[C@H](C)C4=CC(=O)CC[C@]4(C)[C@H]3C(=O)C[C@]12C", "values": [{"measurement": "T/C", "setting": "dose: 108.0 mg/kg/injection, schedule: Q01DX028 (sc), vehicle: carboxymethylcellulose (CMC)", "value": "102 % of control"}, {"measurement": "T/C", "setting": "dose: 180.0 mg/kg/injection, schedule: Q01DX028 (sc), vehicle: carboxymethylcellulose (CMC)", "value": "100 % of control"}, {"measurement": "T/C", "setting": "dose: 300.0 mg/kg/injection, schedule: Q01DX028 (sc), vehicle: carboxymethylcellulose (CMC)", "value": "97 % of control"}, {"measurement": "T/C", "setting": "dose: 500.0 mg/kg/injection, schedule: Q01DX028 (sc), vehicle: carboxymethylcellulose (CMC)", "value": "97 % of control"}]}, {"smiles": "O=c1[nH]c(=O)n(C2CC(O)C(CO)O2)cc1C(F)(F)F", "note": "(stereo unspecified)", "values": [{"measurement": "T/C", "setting": "dose: 50.0 mg/kg/injection, schedule: Q01DX028 (sc), vehicle: water", "value": "102 % of control"}, {"measurement": "T/C", "setting": "dose: 100.0 mg/kg/injection, schedule: Q01DX028 (sc), vehicle: water", "value": "100 % of control"}, {"measurement": "T/C", "setting": "dose: 200.0 mg/kg/injection, schedule: Q01DX028 (sc), vehicle: water", "value": "100 % of control"}, {"measurement": "T/C", "setting": "dose: 400.0 mg/kg/injection, schedule: Q01DX028 (sc), vehicle: water", "value": "97 % of control"}]}, {"smiles": "Nc1nc(=S)c2ncn(C3OC(CO)C(O)C3O)c2[nH]1", "note": "(stereo unspecified)", "values": [{"measurement": "T/C", "setting": "dose: 3.0 mg/kg/injection, schedule: Q01DX028 (sc), vehicle: water", "value": "121 % of control"}, {"measurement": "T/C", "setting": "dose: 5.0 mg/kg/injection, schedule: Q01DX028 (sc), vehicle: water", "value": "110 % of control"}, {"measurement": "T/C", "setting": "dose: 8.4 mg/kg/injection, schedule: Q01DX028 (sc), vehicle: water", "value": "110 % of control"}, {"measurement": "T/C", "setting": "dose: 14.0 mg/kg/injection, schedule: Q01DX028 (sc), vehicle: water", "value": "100 % of control"}, {"measurement": "T/C", "setting": "dose: 23.0 mg/kg/injection, schedule: Q01DX028 (sc), vehicle: water", "value": "100 % of control"}]}, {"smiles": "O=NN(CCF)C(=O)NC1CCCCC1", "values": [{"measurement": "T/C", "setting": "dose: 33.0 mg/kg/injection, schedule: Q01DX028 (sc), vehicle: carboxymethylcellulose (CMC)", "value": "97 % of control"}]}, {"smiles": "CS(=O)(=O)OCCN(CCOS(C)(=O)=O)c1ccc(C=Nc2ccc3oc(=O)ccc3c2)cc1", "values": [{"measurement": "T/C", "setting": "dose: 3.5 mg/kg/injection, schedule: Q01DX Z (sc), vehicle: carboxymethylcellulose (CMC)", "value": "166 % of control"}, {"measurement": "T/C", "setting": "dose: 3.8 mg/kg/injection, schedule: Q01DX028 (sc), vehicle: steriod suspending solution", "value": "165 % of control"}, {"measurement": "T/C", "setting": "dose: 7.0 mg/kg/injection, schedule: Q01DX Z (sc), vehicle: carboxymethylcellulose (CMC)", "value": "177 % of control"}, {"measurement": "T/C", "setting": "dose: 7.5 mg/kg/injection, schedule: Q01DX028 (sc), vehicle: steriod suspending solution", "value": "188 % of control"}, {"measurement": "T/C", "setting": "dose: 14.0 mg/kg/injection, schedule: Q01DX Z (sc), vehicle: carboxymethylcellulose (CMC)", "value": "216 % of control"}, {"measurement": "T/C", "setting": "dose: 15.0 mg/kg/injection, schedule: Q01DX028 (sc), vehicle: steriod suspending solution", "value": "250 % of control"}, {"measurement": "T/C", "setting": "dose: 28.0 mg/kg/injection, schedule: Q01DX Z (sc), vehicle: carboxymethylcellulose (CMC)", "value": "161 % of control"}, {"measurement": "T/C", "setting": "dose: 30.0 mg/kg/injection, schedule: Q01DX028 (sc), vehicle: steriod suspending solution", "value": "230 % of control"}]}]}
